Experimental data published in PMC11062575 (Science Advances, 2024).
Where a chain is given by its changes, count along the chain named.

Columns and labels:
[1] = system: mouse TRPV3 Y564A; settings: mouse TRPV3 Y564A vs wild type; cited from earlier work
[2] = target: human TRPV3 C496A mutant (Homo sapiens, UniProt Q8NET8, C496A); settings: C496A vs wild type
[3] = target: T1, human TRPV3 L557A mutant (Homo sapiens, UniProt Q8NET8, L557A); assay: Fura-2AM Ca2+ uptake measurements, L557A mutant; type: cell-based
T1 sequence (Q8NET8 1-791 isoform Q8NET8-2 L557A): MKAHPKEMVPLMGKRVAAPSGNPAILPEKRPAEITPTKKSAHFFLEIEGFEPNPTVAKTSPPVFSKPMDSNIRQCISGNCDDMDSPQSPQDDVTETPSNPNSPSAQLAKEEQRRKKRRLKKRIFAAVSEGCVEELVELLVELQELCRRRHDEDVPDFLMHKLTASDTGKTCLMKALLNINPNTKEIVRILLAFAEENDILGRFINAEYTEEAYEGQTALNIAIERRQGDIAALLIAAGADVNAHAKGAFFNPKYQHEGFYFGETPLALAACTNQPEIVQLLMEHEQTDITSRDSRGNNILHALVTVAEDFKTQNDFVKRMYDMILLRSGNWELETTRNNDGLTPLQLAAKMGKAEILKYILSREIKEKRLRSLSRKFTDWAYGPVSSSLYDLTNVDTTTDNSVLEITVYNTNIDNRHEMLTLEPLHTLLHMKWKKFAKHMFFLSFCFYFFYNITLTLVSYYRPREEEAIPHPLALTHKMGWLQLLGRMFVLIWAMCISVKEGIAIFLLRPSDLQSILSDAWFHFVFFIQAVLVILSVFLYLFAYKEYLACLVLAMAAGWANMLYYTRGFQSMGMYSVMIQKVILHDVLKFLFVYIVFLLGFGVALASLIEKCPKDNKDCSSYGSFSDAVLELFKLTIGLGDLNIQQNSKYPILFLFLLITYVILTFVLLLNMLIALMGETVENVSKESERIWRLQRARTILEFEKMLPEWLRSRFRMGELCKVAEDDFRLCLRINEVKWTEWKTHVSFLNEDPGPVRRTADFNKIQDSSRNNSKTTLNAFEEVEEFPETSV

[4] = target: T2, wild-type human TRPV3 (Homo sapiens, UniProt Q8NET8); assay: Fura-2AM ratiometric Ca2+ uptake measurements, wild-type TRPV3; type: cell-based
T2 sequence (Q8NET8 1-791 isoform Q8NET8-2): T1 sequence (Q8NET8 1-791 isoform Q8NET8-2 L557A) with A557L

human TRPV3 C496A mutant, sequence (Q8NET8 1-791 isoform Q8NET8-2 C496A): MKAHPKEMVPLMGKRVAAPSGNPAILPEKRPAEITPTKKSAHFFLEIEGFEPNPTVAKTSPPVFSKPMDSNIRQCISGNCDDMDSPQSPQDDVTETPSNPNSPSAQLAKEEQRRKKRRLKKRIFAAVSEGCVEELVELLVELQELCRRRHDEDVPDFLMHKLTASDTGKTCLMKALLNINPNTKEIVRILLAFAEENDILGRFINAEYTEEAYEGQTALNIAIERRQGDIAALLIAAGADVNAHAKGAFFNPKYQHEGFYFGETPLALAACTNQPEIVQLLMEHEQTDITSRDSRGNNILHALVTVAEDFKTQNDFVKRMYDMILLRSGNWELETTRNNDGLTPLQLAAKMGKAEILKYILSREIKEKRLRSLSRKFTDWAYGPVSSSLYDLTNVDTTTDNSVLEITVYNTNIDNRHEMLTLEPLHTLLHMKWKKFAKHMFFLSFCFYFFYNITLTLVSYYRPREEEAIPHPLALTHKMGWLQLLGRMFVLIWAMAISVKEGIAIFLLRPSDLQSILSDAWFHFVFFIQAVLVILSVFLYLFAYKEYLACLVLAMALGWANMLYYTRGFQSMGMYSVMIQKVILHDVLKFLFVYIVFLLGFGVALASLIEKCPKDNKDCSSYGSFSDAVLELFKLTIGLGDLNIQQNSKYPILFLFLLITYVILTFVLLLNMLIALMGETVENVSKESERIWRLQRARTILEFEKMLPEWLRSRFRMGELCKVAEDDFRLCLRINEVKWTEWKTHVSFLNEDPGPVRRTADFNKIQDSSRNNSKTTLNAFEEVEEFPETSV

SMILES	increase in 2-APB potency on Y564 substitution with alanine [1] [fold]	activating potency enhanced compared to wild-type TRPV3 [2]	EC50 [3] [µM]	maximum absolute value of the fluorescence intensity ratio (F340/F380) ([3]; L557A, n = 3, P = 0.61 vs wild type)	EC50 [4] [µM]	maximum absolute value of the fluorescence intensity ratio (F340/F380) ([4]; wild type, n = 3)
NCCOB(c1ccccc1)c1ccccc1 [2-APB, 2-aminoethoxydiphenylborane]	20	~ 3 fold	–	–	–	–
CCCc1cc(O)c2c(c1)OC(C)(C)[C@@H]1CCC(C)=C[C@@H]21 [THCV, tetrahydrocannabivarin]	–	–	0.081 ± 0.001	5.58 ± 0.47	6.1 ± 0.5	5.29 ± 0.04
